# Measurements as given in US11419806B2, “Prebiotic oral care methods using a saccharide” (Colgate-Palmolive Company, priority 2013, dated 2022).
# Tests used:
# Assay in all cases: Twenty-four hour optical density growth in BHI
# Assay type in all cases: cell-based
# [1] = tested on: Actinomyces naeslundii; conditions: A naeslundii
# Outline: (§1)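 OD630 at 0 h and 24 h; BHI, 37° C, anaerobic; inoculum 1×10^7 CFU/ml; myo-inositol, D-lactitol, D-turanose, N-acetyl-D-mannosamine at 5, 10, 20, 25 μmol/ml final; saccharide-free control. 3 biological × 4 technical replicates, mean of daily means.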
# [2] = tested on: Actinomyces viscosus; conditions: A viscosus
# Outline: as §1
# [3] = tested on: Aggregatibacter actinomycetemcomitans; conditions: A actinomycetemcomitans
# [4] = tested on: Capnocytophaga sputigena; conditions: C sputigena
# Outline: as §1
# [5] = tested on: Fusobacterium nucleatum; conditions: F nucleatum
# Outline: as §1
# [6] = tested on: S. sanguinis
# [7] = tested on: Streptococcus gordonii; conditions: S gordonii
# [8] = tested on: Streptococcus mitis; conditions: S mitis
# [9] = tested on: Streptococcus mutans; conditions: S mutans
# [10] = tested on: Streptococcus salivarius; conditions: S salivarius
# [11] = tested on: Streptococcus sobrinus; conditions: S sobrinus
# [12] = tested on: Tannerella forsythia; conditions: T forsythia
# Outline: as §1
# [13] = tested on: Veillonella parvula; conditions: V parvula
# Outline: as §1
compound,measurement,setting,value
"OC[C@H]1O[C@@](O)(CO)[C@@H](O[C@H]2O[C@H](CO)[C@@H](O)[C@H](O)[C@H]2O)[C@@H]1O [D-Turanose, α-D-glucopyranosyl-(1→3)-α-D-fructofuranose]",extent of growth: maximal OD630 over 24 hr divided by maximal OD of control (control = 1),[1]; 5 μmol/ml,0.9281
same,extent of growth: maximal OD630 over 24 hr divided by maximal OD of control (control = 1),[1]; 10 μmol/ml,0.9561
same,extent of growth: maximal OD630 over 24 hr divided by maximal OD of control (control = 1),[1]; 20 μmol/ml,0.9443
same,extent of growth: maximal OD630 over 24 hr divided by maximal OD of control (control = 1),[1]; 25 μmol/ml,0.9441
same,extent of growth: maximal OD630 over 24 hr divided by maximal OD of control (control = 1),[2]; 5 μmol/ml,0.3631
same,extent of growth: maximal OD630 over 24 hr divided by maximal OD of control (control = 1),[2]; 10 μmol/ml,0.3079
same,extent of growth: maximal OD630 over 24 hr divided by maximal OD of control (control = 1),[2]; 20 μmol/ml,0.2558
same,extent of growth: maximal OD630 over 24 hr divided by maximal OD of control (control = 1),[2]; 25 μmol/ml,0.2348
same,extent of growth: maximal OD630 over 24 hr divided by maximal OD of control (control = 1),[3]; 5 μmol/ml,0.7962
same,extent of growth: maximal OD630 over 24 hr divided by maximal OD of control (control = 1),[3]; 10 μmol/ml,0.8318
same,extent of growth: maximal OD630 over 24 hr divided by maximal OD of control (control = 1),[3]; 20 μmol/ml,0.8672
same,extent of growth: maximal OD630 over 24 hr divided by maximal OD of control (control = 1),[3]; 25 μmol/ml,0.8368
same,extent of growth: maximal OD630 over 24 hr divided by maximal OD of control (control = 1),[4]; 5 μmol/ml,0.9568
same,extent of growth: maximal OD630 over 24 hr divided by maximal OD of control (control = 1),[4]; 10 μmol/ml,0.9629
same,extent of growth: maximal OD630 over 24 hr divided by maximal OD of control (control = 1),[4]; 20 μmol/ml,0.9558
same,extent of growth: maximal OD630 over 24 hr divided by maximal OD of control (control = 1),[4]; 25 μmol/ml,0.9630
same,extent of growth: maximal OD630 over 24 hr divided by maximal OD of control (control = 1),[5]; 5 μmol/ml,0.9458
same,extent of growth: maximal OD630 over 24 hr divided by maximal OD of control (control = 1),[5]; 10 μmol/ml,0.9456
same,extent of growth: maximal OD630 over 24 hr divided by maximal OD of control (control = 1),[5]; 20 μmol/ml,0.9285
same,extent of growth: maximal OD630 over 24 hr divided by maximal OD of control (control = 1),[5]; 25 μmol/ml,0.9348
same,extent of growth: maximal OD630 over 24 hr divided by maximal OD of control (control = 1),[6]; 5 μmol/ml,0.8399
same,extent of growth: maximal OD630 over 24 hr divided by maximal OD of control (control = 1),[6]; 10 μmol/ml,0.8356
same,extent of growth: maximal OD630 over 24 hr divided by maximal OD of control (control = 1),[6]; 20 μmol/ml,0.8262
same,extent of growth: maximal OD630 over 24 hr divided by maximal OD of control (control = 1),[6]; 25 μmol/ml,0.7991
same,extent of growth: maximal OD630 over 24 hr divided by maximal OD of control (control = 1),[7]; 5 μmol/ml,1.0397
same,extent of growth: maximal OD630 over 24 hr divided by maximal OD of control (control = 1),[7]; 10 μmol/ml,1.0491
same,extent of growth: maximal OD630 over 24 hr divided by maximal OD of control (control = 1),[7]; 20 μmol/ml,1.0248
same,extent of growth: maximal OD630 over 24 hr divided by maximal OD of control (control = 1),[7]; 25 μmol/ml,1.0226
same,extent of growth: maximal OD630 over 24 hr divided by maximal OD of control (control = 1),[8]; 5 μmol/ml,1.4244
same,extent of growth: maximal OD630 over 24 hr divided by maximal OD of control (control = 1),[8]; 10 μmol/ml,1.4274
same,extent of growth: maximal OD630 over 24 hr divided by maximal OD of control (control = 1),[8]; 20 μmol/ml,1.3589
same,extent of growth: maximal OD630 over 24 hr divided by maximal OD of control (control = 1),[8]; 25 μmol/ml,1.2710
same,extent of growth: maximal OD630 over 24 hr divided by maximal OD of control (control = 1),[9]; 5 μmol/ml,1.0547
same,extent of growth: maximal OD630 over 24 hr divided by maximal OD of control (control = 1),[9]; 10 μmol/ml,0.9829
same,extent of growth: maximal OD630 over 24 hr divided by maximal OD of control (control = 1),[9]; 20 μmol/ml,0.9244
same,extent of growth: maximal OD630 over 24 hr divided by maximal OD of control (control = 1),[9]; 25 μmol/ml,0.9121
same,extent of growth: maximal OD630 over 24 hr divided by maximal OD of control (control = 1),[10]; 5 μmol/ml,0.9483
same,extent of growth: maximal OD630 over 24 hr divided by maximal OD of control (control = 1),[10]; 10 μmol/ml,0.9662
same,extent of growth: maximal OD630 over 24 hr divided by maximal OD of control (control = 1),[10]; 20 μmol/ml,0.9401
same,extent of growth: maximal OD630 over 24 hr divided by maximal OD of control (control = 1),[10]; 25 μmol/ml,0.9445
same,extent of growth: maximal OD630 over 24 hr divided by maximal OD of control (control = 1),[11]; 5 μmol/ml,1.1731
same,extent of growth: maximal OD630 over 24 hr divided by maximal OD of control (control = 1),[11]; 10 μmol/ml,1.1323
same,extent of growth: maximal OD630 over 24 hr divided by maximal OD of control (control = 1),[11]; 20 μmol/ml,1.0466
same,extent of growth: maximal OD630 over 24 hr divided by maximal OD of control (control = 1),[11]; 25 μmol/ml,1.0760
same,extent of growth: maximal OD630 over 24 hr divided by maximal OD of control (control = 1),[12]; 5 μmol/ml,0.9443
same,extent of growth: maximal OD630 over 24 hr divided by maximal OD of control (control = 1),[12]; 10 μmol/ml,0.9445
same,extent of growth: maximal OD630 over 24 hr divided by maximal OD of control (control = 1),[12]; 20 μmol/ml,0.9299
same,extent of growth: maximal OD630 over 24 hr divided by maximal OD of control (control = 1),[12]; 25 μmol/ml,0.9298
same,extent of growth: maximal OD630 over 24 hr divided by maximal OD of control (control = 1),[13]; 5 μmol/ml,1.0000
same,extent of growth: maximal OD630 over 24 hr divided by maximal OD of control (control = 1),[13]; 10 μmol/ml,0.9980
same,extent of growth: maximal OD630 over 24 hr divided by maximal OD of control (control = 1),[13]; 20 μmol/ml,0.9904
same,extent of growth: maximal OD630 over 24 hr divided by maximal OD of control (control = 1),[13]; 25 μmol/ml,1.0049
